Data on 5 compounds can be found in patent US11420977B2, “Late SV40 (LSF) inhibitors” (Trustees of Boston University, priority 2018, dated 2022).

Format in all cases: cell-based
One experiment has as its system SNU-423 cells. The experiment is described as follows: MTS cell proliferation assay, SNU-423. The note with it: Homo sapiens, 120 hrs incubation. The protocol:
(§1) Cell lines and culture conditions: Human colon cancer cells Caco-2, HT29 and HCT15, human pancreatic cancer cells BxPC3, CFPAC-1, and CAPAN-2, liver cancer cells SNU423 and kidney cells HEK293, were obtained from American Type Culture Collection (Rockville, USA). HeLa, DLD1, U937, THP-1, and NIH3T3 cells were obtained from ATCC. Huh7 cells were obtained from (Japanese Cancer Resources Bank). HeLa cells, Huh7, DLD1 and NIH-3T3 cells were cultured in DMEM (Dulbecco's modification of Eagle's Medium; Corning) supplemented with 10% Fetal Bovine Serum (FBS; Invitrogen) and 10% Fetal Calf Serum (FCS; Atlanta Biologicals) respectively. U937, BxPC3, HCT15, SNU423 and THP-1 cells were grown in RPMI-1640 (Roswell Park Memorial Institute; Corning) supplemented with 10% Fetal Bovine Serum (FBS; Invitrogen). CFPAC-1 cells were cultured in Iscove's Modified Dulbecco's Medium (ATCC) supplemented with 10% FBS. CAPAN-2 and HT29 cells were cultured in McCoy's 5a medium supplemented with 10% FBS. Caco2 and HEK293 cells were grown in Eagle's Minimum Essential Medium (ATCC) with final 20% FBS concentration. All cells were maintained at 37° C. in 5% CO2 at constant 70% humidity.
(§2) MTS cell proliferation assay: Cells were detached from the plates using trypsin (0.25% for 3 mins, ATCC) and counted using a hemocytometer and were plated at 3000-1500 cells per well, in a 96-well format. The cells were seeded in the inner wells of 96 well plates, and media was added to the outer wells (blank). For NIH-3T3, 1500 cells were seeded in the inner wells of 96-well plates, and after 20 hours cells were treated with compound or DMSO (vehicle control) at appropriate concentrations (DMSO at final concentration of 1%). For other adherent cells 3000 HeLa, BxPC3, CFPAC-1, CAPAN-2, HEK293, HCT15, HT29, CaCo2, DLD1, Huh7 or SNU423 cells were seeded in in each well approximately 20 hrs prior to the treatment. For U937 and THP-1 suspension cells, 2500 cells were added to the wells of a 96-well plate on the day of treatment. After a 72-hour (or 120 hrs for BxPC3, CAPAN-2, SNU423) incubation with compound or vehicle, cell growth was assessed via the Promega CellTiter 96® AQueous One Solution Cell Proliferation Assay, a colorimetric method to determine the number of viable cells. 20 μL of the CellTiter 96® AQueous One Solution Reagent was added directly into cultured wells and incubated for approximately one hour, after which the absorbance at 490 nm was read with a 96-well plate reader (Opys MR Microplate Reader). GI50 values were determined from plots of the percentage of compound-treated cell growth to vehicle cell growth vs. compound concentration (GraphPad Prism; non-linear regression, log inhibitor verse normalized response with variable slope).

The test system of another experiment is HuH7 cells. The experiment is described as follows: MTS cell proliferation assay, HuH7. The note with it: Homo sapiens, Huh-7, 72-hour incubation. The protocol: as §1, §2
In general terms: Tetrazolium dyes change colour on reduction, which living cells bring about.

Another experiment has as its system NIH 3T3 cells. The experiment is described as follows: MTS cell proliferation assay, NIH 3T3. The note with it: Mus musculus, NIH3T3, 72-hour incubation. As for the experimental part: as §1, with “All cells were maintained at 37° C. in 5% CO2 at constant 70% humidity.” left out
(§3) MTS cell proliferation assay: Cells were detached from the plates using trypsin (0.25% for 3 mins, ATCC) and counted using a hemocytometer and were plated at 3000-1500 cells per well, in a 96-well format. […] After a 72-hour (or 120 hrs for BxPC3, CAPAN-2, SNU423) incubation with compound or vehicle, cell growth was assessed via the Promega CellTiter 96® AQueous One Solution Cell Proliferation Assay, a colorimetric method to determine the number of viable cells. 20 μL of the CellTiter 96® AQueous One Solution Reagent was added directly into cultured wells and incubated for approximately one hour, after which the absorbance at 490 nm was read with a 96-well plate reader (Opys MR Microplate Reader). GI50 values were determined from plots of the percentage of compound-treated cell growth to vehicle cell growth vs. compound concentration (GraphPad Prism; non-linear regression, log inhibitor verse normalized response with variable slope).

A further experiment concerns HeLa cells. The experiment is described as follows: MTS cell proliferation assay, HeLa. The note with it: Homo sapiens, 72-hour incubation. The protocol: as §1, with “All cells were maintained at 37° C. in 5% CO2 at constant 70% humidity.” left out
as §3

The next experiment concerns CaCo-2 cells. The experiment is described as follows: MTS cell proliferation assay, CaCo-2. The note with it: Homo sapiens, 72-hour incubation. The protocol: (§4) Cell lines and culture conditions: Human colon cancer cells Caco-2, HT29 and HCT15, human pancreatic cancer cells BxPC3, CFPAC-1, and CAPAN-2, liver cancer cells SNU423 and kidney cells HEK293, were obtained from American Type Culture Collection (Rockville, USA). HeLa, DLD1, U937, THP-1, and NIH3T3 cells were obtained from ATCC. Huh7 cells were obtained from (Japanese Cancer Resources Bank). HeLa cells, Huh7, DLD1 and NIH-3T3 cells were cultured in DMEM (Dulbecco's modification of Eagle's Medium; Corning) supplemented with 10% Fetal Bovine Serum (FBS; Invitrogen) and 10% Fetal Calf Serum (FCS; Atlanta Biologicals) respectively. […]
as §3, with “GI50 values were determined from plots of the percentage of compound-treated cell growth to vehicle cell growth vs. compound concentration (GraphPad Prism; non-linear regression, log inhibitor verse normalized response with variable slope).” left out

The test system of a further experiment is HCT-15 cells. The experiment is described as follows: MTS cell proliferation assay, HCT-15. Conditions: Homo sapiens, 72-hour incubation. As for the experimental part:
as §4
as §3, with “GI50 values were determined from plots of the percentage of compound-treated cell growth to vehicle cell growth vs. compound concentration (GraphPad Prism; non-linear regression, log inhibitor verse normalized response with variable slope).” left out

For another experiment, the system named is HT-29 cells. The experiment is described as follows: MTS cell proliferation assay, HT-29. Conditions: Homo sapiens, 72-hour incubation. As for the experimental part:
as §4
as §3, with “GI50 values were determined from plots of the percentage of compound-treated cell growth to vehicle cell growth vs. compound concentration (GraphPad Prism; non-linear regression, log inhibitor verse normalized response with variable slope).” left out

With `CCOc1cc(N(C)C)ccc1[C@@H]1CC(=O)Nc2cc3c(cc21)OCCO3` [(R)-FQI-37], the GI50 in the experiment on SNU-423 cells is 147 nM; in the experiment on HuH7 cells, 126 nM.

For `CCOc1cc(N(C)C)ccc1[C@H]1CC(=O)Nc2cc3c(cc21)OCO3` [(S)-FQI-34], the GI50 with SNU-423 cells stood at 50 nM; in the experiment on NIH 3T3 cells, 590 nM; with HuH7 cells, 56 nM; with HeLa cells it was 3800 nM.

In the case of `CCOc1cc(N(C)C)ccc1C1CC(=O)Nc2cc3c(cc21)OCCO3` (racemic) [FQI-37, 9-[4-(dimethylamino)-2-ethoxy-phenyl]-3,6,8,9-tetrahydro-2H-[1,4]dioxino[2,3-g]quinolin-7-one], the GI50 turned out to be 141 nM in the experiment with SNU-423 cells; 141 nM in the experiment on CaCo-2 cells; 18 nM with HCT-15 cells; 398 nM with HT-29 cells; 70 nM in the experiment on HuH7 cells.

Consider `CCOc1cc(N(C)C)ccc1[C@@H]1CC(=O)Nc2cc3c(cc21)OCO3` [(R)-FQI-34], for which the GI50 is 251 nM in the experiment with SNU-423 cells, 5800 nM in the experiment on NIH 3T3 cells, 158 nM in the experiment on HuH7 cells and 300 nM in the experiment with HeLa cells.

Consider `CCOc1cc(N(C)C)ccc1[C@H]1CC(=O)Nc2cc3c(cc21)OCCO3` [(S)-FQI-37], for which the GI50 with SNU-423 cells stood at 60 nM; in the experiment on HuH7 cells, 70 nM.

For orientation: GI50 means the concentration at which growth is held to half of that of the control. Low readings indicate more potent growth inhibition, high ones less potent growth inhibition.
